Test results as given in US20250353835A1, “N-TETRAZOLYL ARYL UREA-BASED DERIVATIVES, PREPARATION METHOD THEREFOR, AND USE THEREOF” (Hangzhou Yirui Pharmaceutical Technology Co., Ltd, priority 2022, published 2025).

Biological target: T1, human B1R (Homo sapiens, UniProt P46663)
T1 construct: host or cells: HEK293
T1 sequence (P46663 1-353): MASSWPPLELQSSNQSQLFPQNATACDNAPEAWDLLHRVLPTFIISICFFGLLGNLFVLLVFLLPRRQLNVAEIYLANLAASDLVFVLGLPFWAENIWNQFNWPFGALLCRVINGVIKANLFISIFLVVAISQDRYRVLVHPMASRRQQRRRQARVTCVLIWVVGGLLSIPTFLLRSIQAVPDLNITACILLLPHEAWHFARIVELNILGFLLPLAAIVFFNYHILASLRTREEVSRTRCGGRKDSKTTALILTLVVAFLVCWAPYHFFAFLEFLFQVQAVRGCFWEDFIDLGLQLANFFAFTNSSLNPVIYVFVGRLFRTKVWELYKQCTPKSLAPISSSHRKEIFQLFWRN
Test: FLIPR calcium ion flux assay, inhibitory activity against human B1R
Assay type: cell-based
Settings: HEK293 cells stably expressing human B1R; agonist [Lys-des-Arg9]-Bradykinin 4.6 nM (EC80); FLIPR method
Description: The inhibitory activity of the compounds against human B1R and B2R channels was determined by calcium ion flux assay using fluorometric imaging plate reader (FLIPR method). See literatures of Lee, Chen et al. for the method. [Lee et al. 2008][Chen et al. 2011]
1. Cell culture: HEK293 recombinant cell lines (WuXi AppTec, Shanghai, China) stably expressing human B1R and B2R were cultured in DMEM (Invitrogen, Cat #11965) medium containing 10% calf serum (Excellbio, Cat #FSP500), 5 μg/ml Geneticin (Invitrogen, Cat #10131) and Penicillin/Streptomycin (Invitrogen, Cat #15140). The incubator conditions were 37° C. and ambient humidity containing 5% CO2.
2. Preparation of the cell assay plate: B1R and B2R cells were seeded in a 384-well assay plate (Greiner, Cat #781090) at a density of 20,000 cells per well (20 μl/well), and cultured overnight at 37° C. in an incubator with 5% CO2. The next day, Fluo-4 Direct™ Loading Buffer (containing 5 mM Probenicid) containing 2× (8 μM) Fluo-4 Direct (Invitrogen, Cat #F10471) was added to each of the wells. The cells were cultured at 37° C. for 50 min, and then culture for at the room temperature 10 min.
3. Preparation of the compound assay plate: The compound was dissolved in 100% DMSO to make a 30 mM stock solution and stored at −20° C. On the day of use, the stock solution of the compound was thawed at the room temperature. Each of the compounds was serially diluted at 1:5 in DMSO culture medium with a starting concentration of 30 μM for 9 concentration points on a 384-well plate. Each of compounds was diluted in duplicate for testing. [Des-Arg10]-HOE140 was used as a positive control compound, and diluted in the same manner with a starting concentration of 3 μM.
4. FLIPR assay: The cell assay plate was placed in a FLIPR instrument ([…]). The compounds in the compound assay plate were added to the corresponding wells on the cell assay plate (10 μL/well) using an automatic program. The calcium ion fluorescence signal was recorded to determine whether the compound may have agonist activity. After 10 minutes, a B1R agonist [Lys-des-Arg9]-Bradykinin2 (10 μL/well) with a final concentration of 4.6 nM (EC80) was added to each of the wells to stimulate the generation of intracellular calcium ion flux signals. The Ca^++-dependent fluorescence signal was continuously monitored at a wavelength of 538 nm to analyze the inhibitory activity of the compound.
5. Data analysis: The data was collected and analyzed by a FLIPR program. The inhibitory (or agonist) activity of the compound at each concentration was evaluated by the fluorescence peak. The IC50 values of the compounds were calculated using EXCEL and PRISM programs.

## COc1ccc(-c2c(F)cc(NC(=O)N3CCC(C(C)(C)C)CC3)cc2-c2nn[nH]n2)cc1Cl [Compound 33, 4-(tert-butyl)-N-(3′-chloro-2-fluoro-4′-methoxy-6-(2H-tetrazol-5-yl)-[1,1′-biphenyl]-4-yl)piperidine-1-carboxamide]
  IC50: 14.6 nM

## Cn1ncc2cc(-c3c(F)cc(NC(=O)N4CCC(C(F)(F)F)CC4)cc3-c3nn[nH]n3)ccc21 [Compound 34, N-(3-fluoro-4-(1-methyl-1H-indazol-5-yl)-5-(2H-tetrazol-5-yl)phenyl)-4-(trifluoromethyl)piperidine-1-carboxamide]
  IC50: 21.4 nM

## COc1ccc(-c2ncc(NC(=O)N3CCC(C(C)(C)C)CC3)cc2-c2nn[nH]n2)cc1OC [Compound 35, 4-(tert-butyl)-N-(6-(3,4-dimethoxyphenyl)-5-(2H-tetrazol-5-yl)pyrid-3-yl)piperidine-1-carboxamide]
  IC50: 92.9 nM

## Cn1ncc2cc(-c3ncc(NC(=O)N4CCC(C(C)(C)C)CC4)cc3-c3nn[nH]n3)ccc21 [Compound 36, 4-(tert-butyl)-N-(6-(1-methyl-1H-indazol-5-yl)-5-(2H-tetrazol-5-yl)pyrid-3-yl)piperidine-1-carboxamide]
  IC50: 48.3 nM

## CCOC(=O)c1ncc(NC(=O)N2CCC(C(C)(C)C)CC2)cc1-c1nn[nH]n1 [Compound 37, ethyl 5-(4-(tert-butyl)piperidine-1-formamido)-3-(2H-tetrazol-5-yl)pyridylcarboxylate]
  IC50: 72.7 nM

## CC(C)(C)C1CCN(C(=O)Nc2cnc(C(=O)OC3CCCCC3)c(-c3nn[nH]n3)c2)CC1 [Compound 38, cyclohexyl 5-(4-(tert-butyl)piperidine-1-formamido)-3-(2H-tetrazol-5-yl)pyridylcarboxylate]
  IC50: 83.7 nM

## CC(C)(C)C1CCN(C(=O)Nc2ccc(-c3ccc4c(c3)OCO4)c(-c3nn[nH]n3)c2)CC1 [Compound 39, N-(4-(benzo[d][1,3]dioxolan-5-yl)-3-(2H-tetrazol-5-yl)phenyl)-4-(tert-butyl)piperidine-1-carboxamide]
  IC50: 82.4 nM

## CC(C)(C)C1CCN(C(=O)Nc2ccc(C3CCOCC3)c(-c3nn[nH]n3)c2)CC1 [Compound 40, 4-(tert-butyl)-N-(4-(tetrahydro-2H-pyran-4-yl)-3-(2H-tetrazol-5-yl)phenyl)piperidine-1-carboxamide]
  IC50: 2040 nM

## CC(C)(C)C1CCN(C(=O)Nc2ccc(C3C=COCC3)c(-c3nn[nH]n3)c2)CC1 (stereo not drawn) [Compound 41, 4-(tert-butyl)-N-(4-(3,4-dihydro-2H-pyran-4-yl)-3-(2H-tetrazol-5-yl)phenyl)piperidine-1-carboxamide]
  IC50: 448 nM

## CC(C)(C)C1CCN(C(=O)Nc2ccc(-c3ccc(C(F)F)nc3)c(-c3nn[nH]n3)c2)CC1 [Compound 42, 4-(tert-butyl)-N-(4-(6-(difluoromethyl)pyrid-3-yl)-3-(2H-tetrazol-5-yl)phenyl)piperidine-1-carboxamide]
  IC50: 109 nM

## CC(C)(C)C1CCN(C(=O)Nc2ccc(C(=O)OC3CCCC3)c(-c3nn[nH]n3)c2)CC1 [Compound 43, cyclopentyl 4-(4-(tert-butyl)piperidine-1-formamido)-2-(2H-tetrazol-5-yl)benzoate]
  IC50: 95.2 nM

## CC(C)(C)C1CCN(C(=O)Nc2ccc(C(=O)OC3CCOC3)c(-c3nn[nH]n3)c2)CC1 (stereo not drawn) [Compound 44, tetrahydrofuran-3-yl 4-(4-(tert-butyl)piperidine-1-formamido)-2-(2H-tetrazol-5-yl)benzoate]
  IC50: 106 nM

## CCOC(=O)c1ccc(NC(=O)N2CCC(C(C)(C)C)CC2)cc1-c1nn[nH]n1 [Compound 45, ethyl 4-(4-(tert-butyl)piperidine-1-formamido)-2-(2H-tetrazol-5-yl)benzoate]
  IC50: 103 nM

## CC(C)(C)C1CCN(C(=O)Nc2ccc(C(=O)NC3CCCC3)c(-c3nn[nH]n3)c2)CC1 [Compound 46, 4-(tert-butyl)-N-(4-(cyclopentylaminoformyl)-3-(2H-tetrazol-5-yl)phenyl)piperidine-1-carboxamide]
  IC50: 74.6 nM

## Cc1ccc(NC(=O)c2ccc(NC(=O)N3CCC(C(C)(C)C)CC3)cc2-c2nn[nH]n2)nc1 [Compound 47, 4-(tert-butyl)-N-(4-((5-methylpyridin-2-yl)aminoformyl)-3-(2H-tetrazol-5-yl)phenyl)piperidine-1-carboxamide]
  IC50: 93.9 nM

## COc1cncc(-c2ccc(NC(=O)N3CCC(C(C)(C)C)CC3)cc2-c2nn[nH]n2)c1 [Compound 48, 4-(tert-butyl)-N-(4-(5-methoxypyrid-3-yl)-3-(2H-tetrazol-5-yl)phenyl)piperidine-1-carboxamide]
  IC50: 372 nM

## CC(C)Oc1ccc(-c2ccc(NC(=O)N3CCC(C(C)(C)C)CC3)cc2-c2nn[nH]n2)cn1 [Compound 49, 4-(tert-butyl)-N-(4-(6-isopropoxypyrid-3-yl)-3-(2H-tetrazol-5-yl)phenyl)piperidine-1-carboxamide]
  IC50: 9.6 nM

## COc1cncc(-c2c(F)cc(NC(=O)N3CCC(C(C)(C)C)CC3)cc2-c2nn[nH]n2)c1 [Compound 50, 4-(tert-butyl)-N-(3-fluoro-4-(5-methoxypyrid-3-yl)-5-(2H-tetrazol-5-yl)phenyl) piperidine-1-carboxamide]
  IC50: 54.8 nM

## Cc1ccc(-c2ccc(NC(=O)N3CCC(C(C)(C)C)CC3)cc2-c2nn[nH]n2)cn1 [Compound 51, 4-(tert-butyl)-N-(4-(6-methylpyrid-3-yl)-3-(2H-tetrazol-5-yl)phenyl)piperidine-1-carboxamide]
  IC50: 17.8 nM

## Cc1cc(-c2ccc(NC(=O)N3CCC(C(C)(C)C)CC3)cc2-c2nn[nH]n2)ccn1 [Compound 52, 4-(tert-butyl)-N-(4-(2-methylpyridin-4-yl)-3-(2H-tetrazol-5-yl)phenyl)piperidine-1-carboxamide]
  IC50: 34.9 nM

## CC(C)(C)C1CCN(C(=O)Nc2cc(F)c(C(=O)NC3CCCC3)c(-c3nn[nH]n3)c2)CC1 [Compound 53, 4-(tert-butyl)-N-(4-(cyclopentylaminoformyl)-3-fluoro-5-(2H-tetrazol-5-yl)phenyl)piperidine-1-carboxamide]
  IC50: 48.1 nM

## Cc1ccc(NC(=O)c2c(F)cc(NC(=O)N3CCC(C(C)(C)C)CC3)cc2-c2nn[nH]n2)nc1 [Compound 54, 4-(tert-butyl)-N-(3-fluoro-4-((5-methylpyridin-2-yl)aminoformyl)-5-(2H-tetrazol-5-yl)phenyl)piperidine-1-carboxamide]
  IC50: 67.9 nM

## Cc1ccc(-c2c(F)cc(NC(=O)N3CCC(C(C)(C)C)CC3)cc2-c2nn[nH]n2)cn1 [Compound 55, 4-(tert-butyl)-N-(3-fluoro-4-(6-methylpyrid-3-yl)-5-(2H-tetrazol-5-yl)phenyl)piperidine-1-carboxamide]
  IC50: 8.9 nM

## CC(C)Oc1ccc(-c2c(F)cc(NC(=O)N3CCC(C(C)(C)C)CC3)cc2-c2nn[nH]n2)cn1 [Compound 56, 4-(tert-butyl)-N-(3-fluoro-4-(6-isopropoxypyrid-3-yl)-5-(2H-tetrazol-5-yl)phenyl)piperidine-1-carboxamide]
  IC50: 7.6 nM

## CC(C)(C)c1cn(-c2c(F)cc(NC(=O)N3CCC(C(C)(C)C)CC3)cc2-c2nn[nH]n2)cn1 [Compound 57, 4-(tert-butyl)-N-(4-(4-(tert-butyl)-1H-imidazol-1-yl)-3-fluoro-5-(2H-tetrazol-5-yl)phenyl)piperidine-1-carboxamide]
  IC50: 8.1 nM

## CC(C)(C)c1cn(-c2ccc(NC(=O)N3CCC(C(C)(C)C)CC3)cc2-c2nn[nH]n2)cn1 [Compound 58, 4-(tert-butyl)-N-(4-(4-(tert-butyl)-1H-imidazol-1-yl)-3-(2H-tetrazol-5-yl)phenyl)piperidine-1-carboxamide]
  IC50: 8.6 nM

## COc1ccc(-c2ccc(NC(=O)NC3CCC(C(C)(C)C)CC3)cc2-c2nn[nH]n2)cc1OC (stereo not drawn) [Compound 59, 1-(4-(tert-butyl)cyclohexyl)-3-(3′,4′-dimethoxy-2-(2H-tetrazol-5-yl)-[1,1′-biphenyl]-4-yl)urea]
  IC50: 35.4 nM
